Columns and labels:
[1] = target: Mast/stem cell growth factor receptor Kit (Homo sapiens) (UniProt P10721); details: Compound concentration 1000.0 nM
[2] = target: Interleukin-1 receptor-associated kinase 3 (Homo sapiens) (UniProt Q9Y616); details: Compound concentration 1000.0 nM
[3] = target: Non-receptor tyrosine-protein kinase TNK1 (Homo sapiens) (UniProt Q13470); details: Compound concentration 1000.0 nM
[4] = target: Protein kinase C delta type (Homo sapiens) (UniProt Q05655); details: Compound concentration 1000.0 nM
[5] = system: Epidermal growth factor receptor (Homo sapiens), P00533 [L858R]; details: Compound concentration 1000.0 nM
[6] = target: Serine/threonine-protein kinase PAK 5 (Homo sapiens) (UniProt Q9P286); details: Compound concentration 1000.0 nM
[7] = target: D(4) dopamine receptor (Homo sapiens) (UniProt P21917); details: Compound concentration 10.0 uM
[8] = target: Protein-tyrosine kinase 6 (Homo sapiens) (UniProt Q13882); details: Compound concentration 1000.0 nM
[9] = system: Receptor-type tyrosine-protein kinase FLT3 (Homo sapiens), P36888 [R834Q]; details: Compound concentration 1000.0 nM
[10] = target: Mitogen-activated protein kinase 11 (Homo sapiens) (UniProt Q15759); details: Compound concentration 1000.0 nM
[11] = target: Activin receptor type-1B (Homo sapiens) (UniProt P36896); details: Compound concentration 1000.0 nM
[12] = target: Serine/threonine-protein kinase MARK1 (Homo sapiens) (UniProt Q9P0L2); details: Compound concentration 1000.0 nM
[13] = target: Serine/threonine-protein kinase PLK4 (Homo sapiens) (UniProt O00444); details: Compound concentration 1000.0 nM
[14] = target: Serine/threonine-protein kinase pim-3 (Homo sapiens) (UniProt Q86V86); details: Compound concentration 1000.0 nM
[15] = system: Epidermal growth factor receptor (Homo sapiens), P00533 [G719S]; details: Compound concentration 1000.0 nM
[16] = target: Ribosomal protein S6 kinase alpha-4 (Homo sapiens) (UniProt O75676); details: Compound concentration 1000.0 nM
[17] = target: Dual specificity mitogen-activated protein kinase kinase 3 (Homo sapiens) (UniProt P46734); details: Compound concentration 1000.0 nM
[18] = target: Misshapen-like kinase 1 (Homo sapiens) (UniProt Q8N4C8); details: Compound concentration 1000.0 nM
[19] = target: Cyclin-dependent kinase 3 (Homo sapiens) (UniProt Q00526); details: Compound concentration 1000.0 nM
[20] = target: Alpha-2B adrenergic receptor (Homo sapiens) (UniProt P18089); details: Compound concentration 10.0 uM
[21] = target: Myosin-IIIa (Homo sapiens) (UniProt Q8NEV4); details: Compound concentration 1000.0 nM
[22] = target: D(1A) dopamine receptor (Homo sapiens) (UniProt P21728); details: Compound concentration 10.0 uM
[23] = target: Ephrin type-A receptor 2 (Homo sapiens) (UniProt P29317); details: Compound concentration 1000.0 nM
[24] = target: Mitogen-activated protein kinase 1 (Homo sapiens) (UniProt P28482); details: Compound concentration 1000.0 nM
[25] = target: Mitogen-activated protein kinase kinase kinase kinase 5 (Homo sapiens) (UniProt Q9Y4K4); details: Compound concentration 1000.0 nM
[26] = target: Calcium-dependent protein kinase 1 (Plasmodium falciparum) (UniProt P62344); details: Compound concentration 1000.0 nM
[27] = target: G protein-coupled receptor kinase 4 (Homo sapiens) (UniProt P32298); details: Compound concentration 1000.0 nM
[28] = target: 5-hydroxytryptamine receptor 6 (Homo sapiens) (UniProt P50406); details: Compound concentration 10.0 uM
[29] = target: Peripheral plasma membrane protein CASK (Homo sapiens) (UniProt O14936); details: Compound concentration 1000.0 nM
[30] = target: Mitogen-activated protein kinase 9 (Homo sapiens) (UniProt P45984); details: Compound concentration 1000.0 nM
[31] = target: Dual specificity mitogen-activated protein kinase kinase 1 (Homo sapiens) (UniProt Q02750); details: Compound concentration 1000.0 nM
[32] = target: Serine/threonine-protein kinase 25 (Homo sapiens) (UniProt O00506); details: Compound concentration 1000.0 nM
[33] = target: STE20/SPS1-related proline-alanine-rich protein kinase (Homo sapiens) (UniProt Q9UEW8); details: Compound concentration 1000.0 nM
[34] = system: Phosphatidylinositol 4,5-bisphosphate 3-kinase catalytic subunit alpha isoform (Homo sapiens), P42336 [H1047Y]; details: Compound concentration 1000.0 nM
[35] = target: Serine/threonine-protein kinase BRSK1 (Homo sapiens) (UniProt Q8TDC3); details: Compound concentration 1000.0 nM
[36] = target: Serine/threonine-protein kinase Sgk3 (Homo sapiens) (UniProt Q96BR1); details: Compound concentration 1000.0 nM
[37] = target: Calcium/calmodulin-dependent protein kinase type IV (Homo sapiens) (UniProt Q16566); details: Compound concentration 1000.0 nM
[38] = target: Serine/threonine-protein kinase SIK3 (Homo sapiens) (UniProt Q9Y2K2); details: Compound concentration 1000.0 nM
[39] = target: Protein kinase C eta type (Homo sapiens) (UniProt P24723); details: Compound concentration 1000.0 nM
[40] = target: Serine/threonine-protein kinase WNK3 (Homo sapiens) (UniProt Q9BYP7); details: Compound concentration 1000.0 nM
[41] = target: Histamine H1 receptor (Homo sapiens) (UniProt P35367); details: Compound concentration 10.0 uM
[42] = target: Serine/threonine-protein kinase Nek3 (Homo sapiens) (UniProt P51956); details: Compound concentration 1000.0 nM
[43] = target: Cyclin-dependent kinase-like 2 (Homo sapiens) (UniProt Q92772); details: Compound concentration 1000.0 nM
[44] = target: Serine/threonine-protein kinase PAK 3 (Homo sapiens) (UniProt O75914); details: Compound concentration 1000.0 nM
[45] = target: Cyclin-dependent kinase 14 (Homo sapiens) (UniProt O94921); details: Compound concentration 1000.0 nM
[46] = system: Tyrosine-protein kinase ABL1 (Homo sapiens), P00519 [Y253F]; details: Compound concentration 1000.0 nM

Chain of Histamine H1 receptor (Homo sapiens) (P35367 whole entry): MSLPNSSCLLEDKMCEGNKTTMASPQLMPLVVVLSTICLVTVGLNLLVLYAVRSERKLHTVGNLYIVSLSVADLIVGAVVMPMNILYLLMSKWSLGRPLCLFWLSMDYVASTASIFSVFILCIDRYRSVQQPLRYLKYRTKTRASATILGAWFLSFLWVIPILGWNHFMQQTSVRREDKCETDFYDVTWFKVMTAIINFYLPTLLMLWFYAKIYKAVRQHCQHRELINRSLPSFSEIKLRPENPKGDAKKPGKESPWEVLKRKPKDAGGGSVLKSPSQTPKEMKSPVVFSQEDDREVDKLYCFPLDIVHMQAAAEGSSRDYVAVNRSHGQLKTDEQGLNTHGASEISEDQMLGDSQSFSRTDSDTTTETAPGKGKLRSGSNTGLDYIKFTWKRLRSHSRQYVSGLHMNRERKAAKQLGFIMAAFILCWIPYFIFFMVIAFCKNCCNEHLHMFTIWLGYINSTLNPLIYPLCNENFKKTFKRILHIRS
Chain of Serine/threonine-protein kinase MARK1 (Homo sapiens) (Q9P0L2 whole entry, looked up): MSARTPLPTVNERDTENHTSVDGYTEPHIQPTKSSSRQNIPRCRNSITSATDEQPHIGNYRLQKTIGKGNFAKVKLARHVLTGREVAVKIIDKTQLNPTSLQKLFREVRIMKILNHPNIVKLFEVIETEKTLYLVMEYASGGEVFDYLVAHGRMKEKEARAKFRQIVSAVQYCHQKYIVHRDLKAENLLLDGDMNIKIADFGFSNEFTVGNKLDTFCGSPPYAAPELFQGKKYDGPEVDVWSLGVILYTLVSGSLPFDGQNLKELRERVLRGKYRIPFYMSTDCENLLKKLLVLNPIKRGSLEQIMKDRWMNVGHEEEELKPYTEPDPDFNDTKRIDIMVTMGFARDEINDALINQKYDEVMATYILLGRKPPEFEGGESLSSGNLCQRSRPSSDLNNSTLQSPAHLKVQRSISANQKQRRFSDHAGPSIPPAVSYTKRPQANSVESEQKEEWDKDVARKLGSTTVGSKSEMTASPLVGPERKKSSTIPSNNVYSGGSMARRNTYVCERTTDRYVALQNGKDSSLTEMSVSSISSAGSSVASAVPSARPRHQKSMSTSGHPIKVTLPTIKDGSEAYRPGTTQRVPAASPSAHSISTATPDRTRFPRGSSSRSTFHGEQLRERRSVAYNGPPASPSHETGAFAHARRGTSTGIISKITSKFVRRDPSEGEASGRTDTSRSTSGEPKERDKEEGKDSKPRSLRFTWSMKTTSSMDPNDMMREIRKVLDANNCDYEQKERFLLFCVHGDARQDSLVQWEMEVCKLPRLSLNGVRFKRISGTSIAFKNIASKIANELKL
Chain of Serine/threonine-protein kinase 25 (Homo sapiens) (O00506 whole entry, looked up): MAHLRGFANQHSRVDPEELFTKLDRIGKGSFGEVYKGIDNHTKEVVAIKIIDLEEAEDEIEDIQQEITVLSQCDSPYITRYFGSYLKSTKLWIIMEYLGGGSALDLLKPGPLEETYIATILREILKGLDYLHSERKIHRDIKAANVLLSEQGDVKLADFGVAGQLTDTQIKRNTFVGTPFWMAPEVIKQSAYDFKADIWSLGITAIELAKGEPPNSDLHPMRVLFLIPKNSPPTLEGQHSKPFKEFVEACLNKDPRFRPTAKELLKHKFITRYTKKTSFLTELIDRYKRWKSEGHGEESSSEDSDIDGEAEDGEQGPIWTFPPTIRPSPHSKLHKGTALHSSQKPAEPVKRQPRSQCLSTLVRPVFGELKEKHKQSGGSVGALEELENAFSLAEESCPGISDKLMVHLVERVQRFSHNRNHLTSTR
Chain of Serine/threonine-protein kinase PAK 3 (Homo sapiens) (O75914 whole entry, looked up): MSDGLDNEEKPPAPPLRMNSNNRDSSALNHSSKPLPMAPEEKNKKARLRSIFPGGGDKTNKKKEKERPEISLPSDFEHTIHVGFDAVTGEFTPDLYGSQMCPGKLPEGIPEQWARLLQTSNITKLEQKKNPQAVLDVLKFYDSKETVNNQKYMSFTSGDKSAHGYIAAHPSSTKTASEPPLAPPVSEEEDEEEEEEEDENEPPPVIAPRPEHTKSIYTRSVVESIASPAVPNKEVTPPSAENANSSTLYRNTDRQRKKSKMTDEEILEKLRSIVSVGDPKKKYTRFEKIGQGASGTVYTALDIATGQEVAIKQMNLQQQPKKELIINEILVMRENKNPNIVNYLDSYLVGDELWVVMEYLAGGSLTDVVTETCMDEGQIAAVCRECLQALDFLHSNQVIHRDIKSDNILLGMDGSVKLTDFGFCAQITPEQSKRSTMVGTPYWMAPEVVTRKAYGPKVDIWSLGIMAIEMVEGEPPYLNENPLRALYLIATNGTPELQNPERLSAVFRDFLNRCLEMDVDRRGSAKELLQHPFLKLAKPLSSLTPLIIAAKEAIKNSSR
Chain of Peripheral plasma membrane protein CASK (Homo sapiens) (O14936 whole entry): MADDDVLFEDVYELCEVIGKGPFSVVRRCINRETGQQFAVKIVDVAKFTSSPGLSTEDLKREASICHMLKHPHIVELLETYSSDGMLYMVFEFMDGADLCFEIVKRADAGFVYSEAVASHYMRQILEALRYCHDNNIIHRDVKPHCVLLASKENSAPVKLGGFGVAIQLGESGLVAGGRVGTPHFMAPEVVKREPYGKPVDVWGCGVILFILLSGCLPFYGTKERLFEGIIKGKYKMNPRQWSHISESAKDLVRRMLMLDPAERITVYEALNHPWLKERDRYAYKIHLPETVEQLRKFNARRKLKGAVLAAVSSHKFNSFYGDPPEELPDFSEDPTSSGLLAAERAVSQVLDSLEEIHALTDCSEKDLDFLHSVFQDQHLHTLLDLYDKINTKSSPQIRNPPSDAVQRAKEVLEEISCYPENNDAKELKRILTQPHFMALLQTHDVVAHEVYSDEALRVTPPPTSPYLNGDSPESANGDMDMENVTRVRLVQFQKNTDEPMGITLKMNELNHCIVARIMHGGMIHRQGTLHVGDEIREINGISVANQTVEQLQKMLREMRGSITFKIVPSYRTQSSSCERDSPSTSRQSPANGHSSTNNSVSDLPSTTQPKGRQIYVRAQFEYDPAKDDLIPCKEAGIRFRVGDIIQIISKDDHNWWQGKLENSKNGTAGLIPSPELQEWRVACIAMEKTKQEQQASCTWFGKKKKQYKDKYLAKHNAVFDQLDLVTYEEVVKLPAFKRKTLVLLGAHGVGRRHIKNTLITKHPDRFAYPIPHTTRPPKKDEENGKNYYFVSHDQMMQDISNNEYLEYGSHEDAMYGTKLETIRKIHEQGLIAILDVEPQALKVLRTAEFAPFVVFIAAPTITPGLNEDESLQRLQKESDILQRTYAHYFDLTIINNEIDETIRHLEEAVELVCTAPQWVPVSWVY
Chain of G protein-coupled receptor kinase 4 (Homo sapiens) (P32298 whole entry, looked up): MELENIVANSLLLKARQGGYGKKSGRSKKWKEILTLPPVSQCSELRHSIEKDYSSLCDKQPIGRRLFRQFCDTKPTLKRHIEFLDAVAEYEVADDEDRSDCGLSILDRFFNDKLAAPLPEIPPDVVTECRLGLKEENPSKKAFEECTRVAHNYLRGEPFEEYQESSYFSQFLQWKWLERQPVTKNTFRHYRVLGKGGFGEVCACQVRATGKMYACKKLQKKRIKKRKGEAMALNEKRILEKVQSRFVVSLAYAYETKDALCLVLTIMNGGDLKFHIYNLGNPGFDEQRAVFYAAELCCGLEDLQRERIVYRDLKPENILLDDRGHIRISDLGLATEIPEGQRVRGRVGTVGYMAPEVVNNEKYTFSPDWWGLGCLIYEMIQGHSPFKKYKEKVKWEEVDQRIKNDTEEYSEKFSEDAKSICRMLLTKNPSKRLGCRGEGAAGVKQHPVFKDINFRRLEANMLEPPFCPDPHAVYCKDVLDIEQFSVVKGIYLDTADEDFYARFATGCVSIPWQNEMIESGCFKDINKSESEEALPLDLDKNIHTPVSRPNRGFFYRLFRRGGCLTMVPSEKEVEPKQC
Chain of Serine/threonine-protein kinase Nek3 (Homo sapiens) (P51956 whole entry): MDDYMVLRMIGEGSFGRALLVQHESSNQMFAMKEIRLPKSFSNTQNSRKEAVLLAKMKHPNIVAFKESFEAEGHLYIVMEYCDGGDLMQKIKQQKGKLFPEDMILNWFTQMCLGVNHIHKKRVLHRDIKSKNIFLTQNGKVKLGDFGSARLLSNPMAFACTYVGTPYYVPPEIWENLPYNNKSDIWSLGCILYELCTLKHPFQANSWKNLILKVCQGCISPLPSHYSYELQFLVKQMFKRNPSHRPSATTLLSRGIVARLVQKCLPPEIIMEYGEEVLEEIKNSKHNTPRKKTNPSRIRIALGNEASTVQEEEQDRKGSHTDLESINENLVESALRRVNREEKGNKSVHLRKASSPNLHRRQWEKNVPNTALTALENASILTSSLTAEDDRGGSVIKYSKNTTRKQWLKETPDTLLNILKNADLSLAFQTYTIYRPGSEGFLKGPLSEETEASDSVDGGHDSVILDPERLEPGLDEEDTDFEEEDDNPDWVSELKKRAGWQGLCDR
Chain of Non-receptor tyrosine-protein kinase TNK1 (Homo sapiens) (Q13470 whole entry): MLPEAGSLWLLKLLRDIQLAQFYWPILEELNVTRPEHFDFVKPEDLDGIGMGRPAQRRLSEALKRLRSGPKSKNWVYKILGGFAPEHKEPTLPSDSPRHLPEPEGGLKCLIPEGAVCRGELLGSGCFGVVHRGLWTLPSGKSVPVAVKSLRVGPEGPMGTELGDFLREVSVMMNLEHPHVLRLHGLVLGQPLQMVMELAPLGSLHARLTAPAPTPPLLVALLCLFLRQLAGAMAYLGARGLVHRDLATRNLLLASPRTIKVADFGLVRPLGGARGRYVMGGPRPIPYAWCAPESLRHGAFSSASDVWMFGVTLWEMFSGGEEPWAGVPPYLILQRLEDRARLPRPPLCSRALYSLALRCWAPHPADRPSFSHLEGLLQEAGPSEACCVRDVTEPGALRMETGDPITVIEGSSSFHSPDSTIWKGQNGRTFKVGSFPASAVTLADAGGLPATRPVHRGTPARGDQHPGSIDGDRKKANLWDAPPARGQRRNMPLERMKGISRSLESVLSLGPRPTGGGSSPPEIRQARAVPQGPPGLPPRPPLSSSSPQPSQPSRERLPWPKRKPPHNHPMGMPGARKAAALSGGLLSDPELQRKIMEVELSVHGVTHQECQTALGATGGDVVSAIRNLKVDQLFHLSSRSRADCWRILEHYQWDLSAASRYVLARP

Cc1cc(-n2nc(Cc3cc(F)cc(C(F)(F)F)c3)nc2C)ccc1C(N)=O [TP-024]
inactive: residual activity [1] 95% | residual activity [2] 100% | residual activity [3] 69% | residual activity [4] 88% | residual activity [5] 100% | residual activity [6] 100% | inhibition [7] -2.09% | residual activity [8] 100% | residual activity [9] 77% | residual activity [10] 90% | residual activity [11] 93% | residual activity [12] 100% | residual activity [13] 84% | residual activity [14] 100% | residual activity [15] 100% | residual activity [16] 95% | residual activity [17] 100% | residual activity [18] 93% | residual activity [19] 100% | inhibition [20] 10.1% | residual activity [21] 100% | inhibition [22] -4.72% | residual activity [23] 100% | residual activity [24] 100% | residual activity [25] 100% | residual activity [26] 100% | residual activity [27] 100% | inhibition [28] 6.25% | residual activity [29] 100% | residual activity [30] 81% | residual activity [31] 100% | residual activity [32] 89% | residual activity [33] 100% | residual activity [34] 78% | residual activity [35] 100% | residual activity [36] 80% | residual activity [37] 100% | residual activity [38] 83% | residual activity [39] 97% | residual activity [40] 100% | inhibition [41] 8.06% | residual activity [42] 100% | residual activity [43] 100% | residual activity [44] 100% | residual activity [45] 100% | residual activity [46] 90%

Cc1nc(Cc2cccc(C(F)(F)F)c2)sc1-c1ccc(C(N)=O)nc1 [TP-024n]
inactive: residual activity [1] 95% | residual activity [2] 100% | residual activity [3] 85% | residual activity [4] 79% | residual activity [5] 100% | residual activity [6] 97% | inhibition [7] -2.16% | residual activity [8] 100% | residual activity [9] 92% | residual activity [10] 95% | residual activity [11] 75% | residual activity [12] 90% | residual activity [13] 90% | residual activity [14] 100% | residual activity [15] 67% | residual activity [16] 82% | residual activity [17] 93% | residual activity [18] 92% | residual activity [19] 88% | inhibition [20] 5.89% | residual activity [21] 98% | inhibition [22] -6.03% | residual activity [23] 68% | residual activity [24] 95% | residual activity [25] 87% | residual activity [26] 100% | residual activity [27] 100% | inhibition [28] 2.42% | residual activity [29] 85% | residual activity [30] 100% | residual activity [31] 100% | residual activity [32] 88% | residual activity [33] 100% | residual activity [34] 100% | residual activity [35] 100% | residual activity [36] 100% | residual activity [37] 100% | residual activity [38] 75% | residual activity [39] 83% | residual activity [40] 61% | inhibition [41] 9.3% | residual activity [42] 100% | residual activity [43] 92% | residual activity [44] 100% | residual activity [45] 100% | residual activity [46] 88%
